Experimental findings from patent US20260000710A1, “Novel Treatments for Cardiovascular Related Disease” (priority 2022, published 2026) are described below.

This test concerns AIM+ and AIM− CD4+ T cells from peptide-expanded PBMCs. In words: TCRβ CDR3 sequencing (immunoSEQ) of sorted AIM+ and AIM− CD4+ T cells.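 For all read-outs here: genomic DNA from sorted cells as template, amplification bias-controlled two-step multiplex PCR, APOB6 pool at 10 µg/ml per peptide, CD40 blocking antibody added before restimulation.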 Format: cell-based, human. The note with it: for Log10 Odds Ratio: AIM+ vs AIM−; for No. of clone-specific productive templates, AIM+ CD4+ T (Total 34927) / No. of clone-specific productive templates, AIM− CD4+ T (Total 45364) / No. of clone-specific productive templates, AIM+ CD4+ T (Total 31354) / No. of clone-specific productive templates, AIM− CD4+ T (Total 48987) / No. of clone-specific productive templates, AIM+ CD4+ T (Total 16700) / No. of clone-specific productive templates, AIM− CD4+ T (Total 21770) / No. of clone-specific productive templates, AIM+ CD4+ T (Total 25796) / No. of clone-specific productive templates, AIM− CD4+ T (Total 25928) / No. of clone-specific productive templates, AIM+ CD4+ T (Total 18591) / No. of clone-specific productive templates, AIM− CD4+ T (Total 7206) / No. of clone-specific productive templates, AIM+ CD4+ T (Total 21697) / No. of clone-specific productive templates, AIM− CD4+ T (Total 49956): PBMCs expanded 14 days and restimulated 24 h with APOB6.

Procedure: To examine the clonotypic identities of autoreactive CD4^+ T cells, the hypervariable TCRβ DR3 region was sequenced using a DNA-based sequencing technique^42 (Adaptive Biotechnologies), which have been used to profile clonal populations of other self-antigen specific T cells^43. PBMCs from six HLA-typed donors (demographics and HLA-II alleles in Tables 5, 6) were expanded (14-days) and restimulated (24 h) with the APOB6 pool. To isolate viable responder and non-responder CD4^+ T cells from the same pool of stimulated PBMCs (schematic in FIG. 15A, gating strategy in FIG. 151B), the inventors used the AIM assay protocol (FIGS. 2A to 2D).
As a second control, unexpanded PBMCs (day 0 samples), sorted into naïve, central memory (TCM) and effector memory (TEM) CD4^+ T cells, were used (gating strategy in FIG. 15C). This allowed tracing the APOB6-specific AIM^+ T cell clones in naïve and memory T cell lineages. Genomic DNA, isolated from sorted AIM^− and AIM^+ Day 14 samples and naïve, TCM and TEM Day 0 samples from six donors, was used as the starting material for TCRVβ sequencing (schematic in FIG. 15A) using an optimized two-step, amplification bias-controlled multiplex-PCR-based approach^42,44 (immunoSEQ Human TCRB Assay, Adaptive Biotechnologies).
For isolation of APOB epitope-specific CD4^+ T cells, PBMCs were expanded with the APOB6pool (10 μg/ml per peptide). On Day 14, cultured cells were washed and re-stimulated with APOB6 (10 μg/ml) for 24 h (AIM assay protocol). 1 μg/ml of CD40 blocking antibody was added 15 min before stimulation. At the end of the stimulation period, cells were washed with FACS buffer (PBS w/o Ca/Mg, 2% FCS). Day 14 (APOB6 expanded and restimulated) and Day 0 (ex vivo samples with no in vitro stimulation) PBMC samples from six donors were resuspended in a staining master mix containing anti-human Fc-Block (Biolegend), fixable viability dye and antibodies against T cell and non-T cell (Dump) surface markers, activation markers and memory markers (antibody details in Table 4). Viability dye was used at 1:1000 dilution, antibodies were used at a final dilution of 1:100 (activation markers) and 1:200 (other extracellular markers). […] Gates were set based on unstimulated and PHA-L stimulated negative and positive controls, respectively. Antigen-specific AIM^+ and non-specific control AIM^− CD4^+ T cells from Day 14 samples and naïve (CD45RA^+CCR7^+), central memory (CD45RA^−CCR7^+, TCM) and effector memory (CD45RA^−CCR7^−, TEM) CD4^+ T cells from Day 0 PBMCs were sorted into HEPES-containing buffer (PBS with 2% FBS and 0.025 M HEPES) using BD FACSAria flow cytometry sorters. Acquired data was analyzed with FlowJo software.
Genomic DNA was extracted from sorted cells using QIAamp DNA Micro Kit (QIAGEN) and sent to Adaptive Biotechnologies for survey-level TCRβ sequencing (depth ˜60,000 reads) using their established immunoSEQ platform^7. Briefly, highly variable CDR3 regions on somatically rearranged human TCRβ chains were amplified with a two-step multiplex PCR approach using optimized set of primers that target the VDJ region spanning each unique CDR3B. A synthetic repertoire containing all possible V/J templates is used as a built-in control to quantify and correct PCR amplification biases. Processing of raw Illumina sequence reads, filtering, demultiplexing, clustering and mapping of CDR3 sequences and annotation of VDJ genes using IMGT database sequences were performed at Adaptive Biotechnologies and made available for download and analysis.

For the substance “CASSPDFSGANVLTF: TCRβ CDR3 clone, TCRBV05-06+TCRBJ02-06, Donor 6”, under “Donor 6”, the “Log10 Odds Ratio” value was found to be 2.17; the “No. of clone-specific productive templates, AIM+ CD4+ T (Total 34927)” value stood at 339; the “No. of clone-specific productive templates, AIM− CD4+ T (Total 45364)” value was 3.

In the case of “CASSPGREPGNTIYF: TCRβ CDR3 clone, TCRBV07-09+TCRBJ01-03, Donor 5”, under “Donor 5”, the “Log10 Odds Ratio” value turned out to be 0.57; the “No. of clone-specific productive templates, AIM+ CD4+ T (Total 31354)” value worked out at 422; the “No. of clone-specific productive templates, AIM− CD4+ T (Total 48987)” value was found to be 179.

Turning to “CASSPLLYSGNTIYF: TCRβ CDR3 clone, TCRBV07-02+TCRBJ01-03, Donor 3”, for the setting “Donor 3”, the “Log10 Odds Ratio” value is 12.09; the “No. of clone-specific productive templates, AIM+ CD4+ T (Total 16700)” value was found to be 347; the “No. of clone-specific productive templates, AIM− CD4+ T (Total 21770)” value is reported as 0.

“CASSPQPSTDTQYF: TCRβ CDR3 clone, TCRBV07-08+TCRBJ02-03, Donor 4”: where the note is “Donor 4”, the “Log10 Odds Ratio” value is recorded as 1.60; the “No. of clone-specific productive templates, AIM+ CD4+ T (Total 25796)” value turned out to be 431; the “No. of clone-specific productive templates, AIM− CD4+ T (Total 25928)” value is on record as 11.

Consider “CASSPRAGGAVREQYF: TCRβ CDR3 clone, TCRBV05-08+TCRBJ02-07, Donor 2”, for which, under “Donor 2”, the “Log10 Odds Ratio” value was 12.03; the “No. of clone-specific productive templates, AIM+ CD4+ T (Total 18591)” value was 375; the “No. of clone-specific productive templates, AIM− CD4+ T (Total 7206)” value came to 0.

Take “CASSPRGAVNTEAFF: TCRβ CDR3 clone, TCRBV07-09+TCRBJ01-01, Donor 4”: under “Donor 4”, the “Log10 Odds Ratio” value was 0.88; the “No. of clone-specific productive templates, AIM+ CD4+ T (Total 25796)” value is 950; the “No. of clone-specific productive templates, AIM− CD4+ T (Total 25928)” value is on record as 130.

Regarding “CASSQEVGGDHGYTF: TCRβ CDR3 clone, TCRBV04-03+TCRBJ01-02, Donor 3”, under “Donor 3”, the “Log10 Odds Ratio” value came to 2.41; the “No. of clone-specific productive templates, AIM+ CD4+ T (Total 16700)” value is 759; the “No. of clone-specific productive templates, AIM− CD4+ T (Total 21770)” value is listed as 4.

Regarding “CASSQTALYSGNTIYF: TCRβ CDR3 clone, TCRBV19-01+TCRBJ01-03, Donor 5”, for the setting “Donor 5”, the “Log10 Odds Ratio” value stood at 12.08; the “No. of clone-specific productive templates, AIM+ CD4+ T (Total 31354)” value is listed as 777; the “No. of clone-specific productive templates, AIM− CD4+ T (Total 48987)” value was 0.

As to “CASSQTGQGYNEQFF: TCRβ CDR3 clone, TCRBV23-01+TCRBJ02-01, Donor 6”, where the note is “Donor 6”, the “Log10 Odds Ratio” value stood at 1.49; the “No. of clone-specific productive templates, AIM+ CD4+ T (Total 34927)” value turned out to be 308; the “No. of clone-specific productive templates, AIM− CD4+ T (Total 45364)” value was found to be 13.

As for “CASSSLTPEAYGYTF: TCRβ CDR3 clone, TCRBV28-01+TCRBJ01-02, Donor 2”, where the note is “Donor 2”, the “Log10 Odds Ratio” value is 2.21; the “No. of clone-specific productive templates, AIM+ CD4+ T (Total 18591)” value is 796; the “No. of clone-specific productive templates, AIM− CD4+ T (Total 7206)” value is listed as 2.

Consider “CASSSSGSNYNEQFF: TCRβ CDR3 clone, TCRBV03-01/03-02+TCRBJ02-01, Donor 3”, for which, where the note is “Donor 3”, the “Log10 Odds Ratio” value is recorded as 1.19; the “No. of clone-specific productive templates, AIM+ CD4+ T (Total 16700)” value was found to be 597; the “No. of clone-specific productive templates, AIM− CD4+ T (Total 21770)” value came out at 52.

With “CASSTTGLAAYNEQFF: TCRβ CDR3 clone, TCRBV19-01+TCRBJ02-01, Donor 1”, under “Donor 1”, the “Log10 Odds Ratio” value came out at 1.97; the “No. of clone-specific productive templates, AIM+ CD4+ T (Total 21697)” value is reported as 519; the “No. of clone-specific productive templates, AIM− CD4+ T (Total 49956)” value was found to be 13.

Take “CASSWDRTKFGNQPQHF: TCRβ CDR3 clone, TCRBV19-01+TCRBJ01-05, Donor 2”: for the setting “Donor 2”, the “Log10 Odds Ratio” value is given as 2.02; the “No. of clone-specific productive templates, AIM+ CD4+ T (Total 18591)” value stood at 268; the “No. of clone-specific productive templates, AIM− CD4+ T (Total 7206)” value is listed as 1.

In the case of “CASSYGGGPPDTQYF: TCRβ CDR3 clone, TCRBV06-06+TCRBJ02-03, Donor 5”, where the note is “Donor 5”, the “Log10 Odds Ratio” value is reported as 2.34; the “No. of clone-specific productive templates, AIM+ CD4+ T (Total 31354)” value came out at 810; the “No. of clone-specific productive templates, AIM− CD4+ T (Total 48987)” value was found to be 6.

As to “CASSYRQTNQPQHF: TCRβ CDR3 clone, TCRBV06-02/06-03+TCRBJ01-05, Donor 4”, under “Donor 4”, the “Log10 Odds Ratio” value came out at 12.14; the “No. of clone-specific productive templates, AIM+ CD4+ T (Total 25796)” value is 509; the “No. of clone-specific productive templates, AIM− CD4+ T (Total 25928)” value came out at 0.

In the case of “CASSYSSGGGNEQFF: TCRβ CDR3 clone, TCRBV06-05+TCRBJ02-01, Donor 1”, where the note is “Donor 1”, the “Log10 Odds Ratio” value is reported as 2.61; the “No. of clone-specific productive templates, AIM+ CD4+ T (Total 21697)” value is 348; the “No. of clone-specific productive templates, AIM− CD4+ T (Total 49956)” value is on record as 2.

With “CASTATESSPLHF: TCRβ CDR3 clone, TCRBV12-03/12-04+TCRBJ01-06, Donor 5”, under “Donor 5”, the “Log10 Odds Ratio” value is given as 11.80; the “No. of clone-specific productive templates, AIM+ CD4+ T (Total 31354)” value amounted to 415; the “No. of clone-specific productive templates, AIM− CD4+ T (Total 48987)” value is 0.
